Reference: patent publication US20160185745A1, “ANALOGS OF VINAXANTHONE AND XANTHOFULVIN, METHODS OF SYNTHESIS, AND METHODS OF TREATMENTS THEREOF” (BOARD OF REGENTS, THE UNIVERSITY OF TEXAS SYSTEM, priority 2013, published 2016)

Experiments:
SUCNR1 = target: T1, SUCNR1 (Homo sapiens, UniProt Q9BXA5); assay: modulation of SUCNR1 when administered with sodium succinate; assay type: cell-based; conditions: compared to sodium succinate alone
T1 sequence (Q9BXA5 1-334): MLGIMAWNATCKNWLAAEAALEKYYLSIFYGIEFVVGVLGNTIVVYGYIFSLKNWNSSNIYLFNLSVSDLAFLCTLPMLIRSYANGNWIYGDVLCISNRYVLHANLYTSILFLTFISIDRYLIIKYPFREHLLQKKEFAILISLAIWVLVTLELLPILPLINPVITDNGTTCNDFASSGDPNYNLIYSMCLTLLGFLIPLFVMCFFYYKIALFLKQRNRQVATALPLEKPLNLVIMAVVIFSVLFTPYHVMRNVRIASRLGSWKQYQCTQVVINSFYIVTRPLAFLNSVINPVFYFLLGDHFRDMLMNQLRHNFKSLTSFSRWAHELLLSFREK
Protocol: The values are compared to 100% activation by sodium succinate.
(§1) Control: 0.2% DMSO in M9 buffer. […] Additionally, several analogs were prepared and their biological activity was measured.

[1] = system: GFP-labeled cholinergic neurons; assay: outgrowth of GFP-labeled cholinergic neurons in vivo in C. elegans; conditions: for outgrowth activity of GFP-labeled cholinergic neurons: control 0.2% DMSO in M9 buffer, compared with dibutyryl cAMP
Protocol: as §1

[2] = at concentrations >1000 times the effective dose; cited from earlier work
semaphorin 3A (Sema3A) = target: T2, semaphorin 3A (Sema3A) (Homo sapiens, UniProt Q14563); conditions: read-out: Sema3A inhibitory activity IC50 (converted); cited from earlier work
T2 sequence (Q14563 21-771): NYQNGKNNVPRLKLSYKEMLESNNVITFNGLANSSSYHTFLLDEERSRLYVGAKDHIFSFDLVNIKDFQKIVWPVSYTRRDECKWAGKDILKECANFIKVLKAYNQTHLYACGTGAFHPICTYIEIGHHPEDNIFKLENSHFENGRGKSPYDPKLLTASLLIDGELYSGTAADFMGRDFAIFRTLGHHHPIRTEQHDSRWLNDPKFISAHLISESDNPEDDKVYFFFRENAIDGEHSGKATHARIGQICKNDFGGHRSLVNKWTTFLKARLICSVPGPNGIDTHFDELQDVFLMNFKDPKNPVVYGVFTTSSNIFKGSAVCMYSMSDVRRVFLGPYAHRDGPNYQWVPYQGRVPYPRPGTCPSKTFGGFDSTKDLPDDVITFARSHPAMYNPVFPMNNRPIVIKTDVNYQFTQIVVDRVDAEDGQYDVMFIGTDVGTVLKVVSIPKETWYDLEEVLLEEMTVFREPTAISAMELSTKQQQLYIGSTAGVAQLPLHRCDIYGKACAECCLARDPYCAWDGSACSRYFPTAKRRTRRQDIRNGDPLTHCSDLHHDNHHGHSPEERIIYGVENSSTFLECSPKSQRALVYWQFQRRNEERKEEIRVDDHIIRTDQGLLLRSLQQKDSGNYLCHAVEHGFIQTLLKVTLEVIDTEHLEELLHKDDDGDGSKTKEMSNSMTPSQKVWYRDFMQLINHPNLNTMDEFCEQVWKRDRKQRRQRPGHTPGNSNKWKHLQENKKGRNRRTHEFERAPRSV

Row | Dose ratio (SUCNR1) | efficacy value (SUCNR1) | Compound | outgrowth activity of GFP-labeled cholinergic neurons [1] | cytotoxicity effects [2] | IC50 (semaphorin 3A (Sema3A)) | promotes branching in % of animals ([1]; at 2 mM)
1 | 0.33 | 230% | CC(=O)c1cc2c(=O)c3c(C(=O)O)c(O)c(O)cc3oc2c(C(C)=O)c1-c1coc2cc(O)c(O)c(C(=O)O)c2c1=O [vinaxanthone, 5,7-diacetyl-6-(5-carboxy-6,7-dihydroxy-4-oxo-4H-chromen-3-yl)-2,3-dihydroxy-9-oxo-9H-xanthene-1-carboxylic acid] | comparable to dibutyryl cAMP | no observable cytotoxicity effects | 173 nM | –
2 | 0.32 | 222% | CC(=O)c1c(C)c(/C(O)=C2\COc3cc(O)c(O)c(C(=O)O)c3C2=O)cc2c(=O)c3c(C(=O)O)c(O)c(O)cc3oc12 [xanthofulvin] | comparable to dibutyryl cAMP | – | – | –
3 | – | – | CCCC(=O)Nc1ncnc2c1ncn2[C@@H]1O[C@@H]2COP(=O)(O)O[C@H]2[C@H]1OC(=O)CCC [dibutyryl cAMP, reference compound] | – | – | – | 36%
